Tests used:
c-Fos = experiment: Immunohistochemical staining for c-Fos in brain of CRS model; format: in vivo, C57BL/6NTac mice; settings: hippocampus and amygdala, CRS+BA group, 100 mg/kg oral
Method: In order to confirm the antidepressant efficacy of bornyl acetate on the animal model of stress depression, an animal model of depression induced by chronic restrained stress (CRS) was prepared. Specifically, the animal model, 8-week-old male C57BL/6NTac mice after birth (Narabiotechnology, Korea; weight 22-24 g) had been stabilized for 1 week. A 50 ml conical tube (SPL Life sciences, Pocheon, Korea) was punched to make a hole, thereby making a restraint frame. The mice were put in the frame and restrained for 2 hours every day for 14 days. After restraint, the mice were allowed to freely ingest water and food in the home cage. Bornyl acetate (100 mg/kg) was administered orally 1 hour before induction of restraint stress every day. 14 days later, the mice were anesthetized, and 4% paraformaldehyde was perfused into the heart. Then, the mice were fixed, and the brain was excised. The excised brain was immersed in 4% paraformaldehyde and fixed at 4° C. for one more day. It was then changed to 30% sucrose, and the brain was stored at 4° C. for 3 days or more to prevent freeze damage. The brain was cut into a thickness of 30 μm using a cryocut microtome to prepare the frozen sections. […]

COX-2 protein = experiment: Western blot of COX-2 protein in brain (hippocampus and amygdala) of CRS model; format: in vivo, C57BL/6NTac mice; settings: CRS+BA group
Method: In order to confirm the antidepressant efficacy of bornyl acetate on the animal model of stress depression, an animal model of depression induced by chronic restrained stress (CRS) was prepared. Specifically, the animal model, 8-week-old male C57BL/6NTac mice after birth (Narabiotechnology, Korea; weight 22-24 g) had been stabilized for 1 week. A 50 ml conical tube (SPL Life sciences, Pocheon, Korea) was punched to make a hole, thereby making a restraint frame. The mice were put in the frame and restrained for 2 hours every day for 14 days. After restraint, the mice were allowed to freely ingest water and food in the home cage. The hippocampus and amygdala of the brain were excised. They were added to 200 μl of a protein lysis buffer (10 mM Tris, 0.5 mM EDTA, 0.25 M sucrose), and proteins were isolated using a grinder. The isolated protein was quantified by the Bradford method (Bio-rad, USA) using bovine serum albumin (BSA, Sigma, USA), and then 25 μg of the protein was separated by 10% sodium dodecyl sulfate-polyacrylamide gel electrophoresis (SDS-PAGE) and transferred to polyvinylidene difluoride (PVDF) membrane (Gendepot, UK). PVDF membranes were blocked in 5% skimmed milk (BD, USA) for 1 hour. […] Identification and quantitative analysis of proteins were analyzed using an imaging device ChemiDoc XRS+ (Bio-Rad). […]

CC(=O)OC1CC2CCC1(C)C2(C)C (stereo not drawn) [BA, bornyl acetate]
distribution of cells immunostained by c-Fos (c-Fos): consistent | protein expression of COX-2 (CRS-induced increase) (COX-2 protein; amygdala): significantly inhibited | protein expression of COX-2 (CRS-induced increase) (COX-2 protein; hippocampus): significantly inhibited

From patent US12285399B2, “Composition comprising bornyl acetate or pharmaceutically acceptable salt thereof as active ingredient for prevention or treatment of stress-related disorder” (UNIVERSITY-INDUSTRY COOPERATION GROUP OF KYUNG HEE …, priority 2019, dated 2025)
